By EC50 is commonly meant the concentration at which the effect is half-maximal. As a reminder, the IC50 is the midpoint of a concentration-inhibition curve.

Four compounds from ChEMBL document CHEMBL2390848, “Anticancer effect of altersolanol A, a metabolite produced by the endophytic fungus Stemphylium globuliferum, mediated by its pro-apoptotic and anti-invasive potential via the inhibition of NF-κB activity” (Bioorg Med Chem, 2013) can be followed below.

SMILES strings stand for the structures. The source made the active and inactive calls. The calls are words filed in the database; no cut-off is given here.

The subject of data set [1] is K562. The data set can be described thus: Cytotoxicity against human K562 cells after 24 hrs by trypan blue exclusion test. As to conditions: K562, 24 h. The data set is classed as functional, cell-based.
Data set [2] concerns K562. The experiment in a line: (§1) Inhibition of TNFalpha-induced NF-kappa-B transcriptional activity in human K562 cells pretreated with compound for 2 hrs measured 6 hrs post TNFalpha challenge by luciferase reporter gene assay. The data set is classed as cell-based. On the technique in general: Reporter assays use an easily measured gene product as a stand-in for the process of interest.

A short description of data set [3]: as §1. Format: cell-based.
Data set [4] concerns K562. The data set can be described thus: Cytotoxicity against human K562 cells after 48 hrs by trypan blue exclusion test. As to conditions: K562, 48 h. Format: functional, cell-based.
Data set [5] deals with K562. The experiment in a line: Cytotoxicity against human K562 cells at 0.5 to 100 uM after 8 to 72 hrs by trypan blue exclusion test. Format: functional, cell-based.
The subject of data set [6] is K562. The experiment in a line: Cytotoxicity against human K562 cells at 100 uM after 24 hrs by trypan blue exclusion test. Format: functional, cell-based.
In data set [7] the test system is K562. The data set can be described thus: Inhibition of TNFalpha-induced NF-kappa-B transcriptional activity in human K562 cells pretreated with compound at 100 uM for 2 hrs measured 6 hrs post TNFalpha challenge by luciferase reporter gene assay. The data set is classed as cell-based.
Data set [8] has as its system K562. The data set can be described thus: Induction of apoptosis in human K562 cells after 16 to 72 hrs using annexin V-propidium iodide staining by FACS analysis. The data set is classed as functional, cell-based.
In data set [9] the test system is K562. The data set can be described thus: Induction of apoptosis in human K562 cells assessed as cleavage of caspase-9 after 16 to 24 hrs by Western blot analysis. The data set is classed as functional, cell-based. A general note: Immunoblotting shows a protein as a band on a membrane.
Data set [10] deals with A549. The experiment in a line: Antimigratory activity against human A549 cells treated at 25 uM after scratching measured at 6 hrs interval over 120 hrs by scratch-wound assay. The data set is classed as functional, cell-based.
In data set [11] the test system is K562. The experiment in a line: Cell cycle arrest in human K562 cells assessed as accumulation at sub-G1 phase at 4 uM after 48 hrs by flow cytometry relative to untreated control. The data set is classed as functional.
The test system of data set [12] is K562. The data set can be described thus: Induction of apoptosis in human K562 cells assessed as reduction in XIAP expression after 16 to 72 hrs by Western blot analysis. Format: functional, cell-based.
The subject of data set [13] is K562. The data set can be described thus: Cell cycle arrest in human K562 cells assessed as accumulation at sub-G1 phase at 4 uM after 72 hrs by flow cytometry relative to untreated control. Format: functional. In general terms: Flow cytometry measures light scatter and fluorescence of single cells or particles in a stream.
Data set [14] relates to PBMC. The data set can be described thus: Effect on metabolism of human PBMCs after 24 hrs by CellTiter-Glo luminescent cell viability assay. The data set is classed as functional, cell-based.
Data set [15] relates to A549. The experiment in a line: Antiproliferative activity against human A549 cells measured at 6 hrs over 120 hrs by videomicroscopy analysis. The data set is classed as functional, cell-based.
The subject of data set [16] is K562. The experiment in a line: Induction of apoptosis in human K562 cells assessed as reduction in Mcl-1 expression after 16 to 72 hrs by Western blot analysis. Format: functional, cell-based.
Data set [17] relates to K562. The experiment in a line: Induction of apoptosis in human K562 cells assessed as cleavage of caspase-3 after 16 to 24 hrs by Western blot analysis. The data set is classed as functional, cell-based.
For data set [18], the system named is K562. The experiment in a line: Cell cycle arrest in human K562 cells assessed as accumulation at sub-G1 phase at 0.2 to 10 uM by flow cytometry. The following applies: TDE = time-dependent effect. Format: functional, cell-based.
Data set [19] deals with K562. The experiment in a line: Cell cycle arrest in human K562 cells assessed as accumulation at sub-G1 phase after 24 hrs by flow cytometry relative to untreated control. Format: functional.
The test system of data set [20] is PBMC. The experiment in a line: Cytotoxicity against human PBMCs after 24 hrs by trypan blue exclusion test. Format: cell-based.
The test system of data set [21] is K562. The data set can be described thus: Antiproliferative activity against human K562 cells measured at 6 hrs over 120 hrs by videomicroscopy analysis. Format: functional, cell-based.
Data set [22] deals with A549. The data set can be described thus: Cytotoxicity against human A549 cells after 24 hrs by XTT assay. The data set is classed as functional, cell-based. The following applies: A549, 24 h.
The subject of data set [23] is K562. The data set can be described thus: Cell cycle arrest in human K562 cells assessed as accumulation at sub-G1 phase after 16 to 72 hrs by flow cytometry. Format: functional, cell-based.
Data set [24] concerns K562. The data set can be described thus: Induction of apoptosis in human K562 cells assessed as reduction in Bcl-xL expression after 16 to 72 hrs by Western blot analysis. The data set is classed as functional, cell-based.
Data set [25] relates to K562. The experiment in a line: Cell cycle arrest in human K562 cells assessed as accumulation at sub-G1 phase after 16 hrs by flow cytometry relative to untreated control. The data set is classed as functional.

Turning to `COc1cc(OC(C)=O)c2c(c1)C(=O)C1=C(C2=O)[C@H](OC(C)=O)[C@@H](OC(C)=O)[C@@](C)(O)[C@@H]1OC(C)=O`, the results for the EC50 in the data set with K562 [1] and with K562 [4] were 4 µM and 2.5 µM, respectively. The inhibition entry in the data set on K562 [2] was “Dose-dependent effect”. Moreover, the IC50 in data set [3] was 4.64 µM. Also, the outcome in the data set on K562 [5] was Active.

Regarding `COc1cc(O)c2c(c1)[C@H](O)[C@@H]1[C@@H](C2=O)[C@H](O)[C@@H](O)[C@@](C)(O)[C@@H]1O`, the outcome in the data set on K562 [6] was inactive. Besides, the inhibition entry in the data set on K562 [7] is “inactive”.

For `COc1cc(O)c2c(c1)[C@H](O)[C@H]1C[C@](C)(O)[C@H](O)C[C@@H]1C2=O`, in the data set with K562 [6], the outcome was inactive. Further, in the data set on K562 [7], the inhibition result was “inactive”.

In the case of `COc1cc(O)c2c(c1)C(=O)C1=C(C2=O)[C@H](O)[C@@H](O)[C@@](C)(O)[C@@H]1O` [ALTERSOLANOL A], the EC50 with K562 [1] was 4 µM; in the data set with PBMC [14] it was 4.2 µM; in the data set on A549 [15] it was over 2 µM; with K562 [21] it was over 1 µM; in the data set with K562 [4], 2.5 µM; with A549 [22], 29.5 µM. Also, the Activity result in the data set on K562 [8] was “Dose-dependent effect”; with K562 [9], “Dose-dependent effect”; in the data set on K562 [11], 65%; in the data set with K562 [12], “Dose-dependent effect”; with K562 [13], 65%; in the data set on K562 [16], “Dose-dependent effect”. For the same compound, the Activity entry in the data set on K562 [17] was “Dose-dependent effect”; in the data set on K562 [18], “tde”; with K562 [19], 40%; in the data set on PBMC [20], “Non-toxic”; in the data set on K562 [23], “Dose-dependent effect”; with K562 [24], “Dose-dependent effect”. For the same compound, the Activity in the data set on K562 [25] turned out to be 40%. In addition, the result with A549 [10] and in the data set on K562 [5] was Active. Moreover, the inhibition entry with K562 [2] was “Dose-dependent effect”. Also, the IC50 in [3] stood at 0.8 µM.
